In patent US4444691A, “11-Cyano-prostaglandins of the F-series” (American Cyanamid Company, priority 1982, dated 1984):

How the values were obtained:
gastrointestinal effects = settings: Physician's Desk Reference 1972, p. 964; cited from earlier work
[1] = system: ulcerogenic effects induced by indomethacin (stomach ulcers); assay type: in vivo, rat; settings: indomethacin 20 mg/kg s.c., 5 h

In the case of COc1ccc2c(c1)c(CC(=O)O)c(C)n2C(=O)c1ccc(Cl)cc1 [indomethacin, reference compound], the Gastrointestinal reactions (gastrointestinal effects) is given as “occurrence and, at times, severity of gastrointestinal reactions” and the “Ulcer score, control animals treated with indomethacin but not test compound” value [1] is given as 2.5-3.5.
